Measured values: patent US12139520B2 (priority 2020, dated 2024)
Bridge positions count the residues as written; N and C are the ends. Square brackets hold non-standard residues; d marks the D form. Peptide text beside a SMILES is read from it. Hyp = O=C(O)[C@@H]1C[C@@H](O)CN1

Assays:
[1] = biological target: T1, hAMY3 receptor (Homo sapiens, UniProt O60896+P30988); assay: cAMP assay for in vitro receptor activation, hAMY3-R; assay type: cell-based; conditions: cAMP assay, hAMY3 receptor; read-out: hAMY3R EC50
T1 sequence (P30988 25-474): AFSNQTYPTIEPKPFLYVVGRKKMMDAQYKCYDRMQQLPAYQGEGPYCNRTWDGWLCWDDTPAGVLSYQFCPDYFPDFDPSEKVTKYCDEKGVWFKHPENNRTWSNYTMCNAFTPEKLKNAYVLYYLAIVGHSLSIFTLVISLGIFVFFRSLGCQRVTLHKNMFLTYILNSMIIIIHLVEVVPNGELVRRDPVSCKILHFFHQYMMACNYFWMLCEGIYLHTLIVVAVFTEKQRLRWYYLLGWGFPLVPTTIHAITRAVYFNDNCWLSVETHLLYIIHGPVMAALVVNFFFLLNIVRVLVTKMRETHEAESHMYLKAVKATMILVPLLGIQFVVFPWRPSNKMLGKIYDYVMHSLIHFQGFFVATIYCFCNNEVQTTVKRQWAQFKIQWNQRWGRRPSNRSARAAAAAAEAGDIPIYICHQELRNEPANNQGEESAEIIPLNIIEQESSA
T1 sequence (O60896 24-148 partner): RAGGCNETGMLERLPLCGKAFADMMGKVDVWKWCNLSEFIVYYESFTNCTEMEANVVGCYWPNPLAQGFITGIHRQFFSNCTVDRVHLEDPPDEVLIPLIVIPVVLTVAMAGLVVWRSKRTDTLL
Outline: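 Stable hAMY3 cells; DPBS + 0.05% casein + 0.5 mM IBMX; graded compound doses, 30 min, RT; cAMP via HTRF Gs kit, TR-FRET read at 1 h.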

[2] = Physical stability of peptide analogues (Thioflavin T fibrillation); assay type: physicochemical; conditions: maximum ThT signal normalized between hAMY maximum and buffer background; 40° C., shaking, four days; pH 7 per table title
Outline: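 ThT fluorescence (450 nm excitation, 480 nm emission; 4 μM dye) was read every 10 min over four days at 40° C under 700 rpm shaking stress, after 1 h in pH 4 acetate or pH 7 phosphate (50 mM). Peak smoothed signal expressed as percent, scaled between buffer background and hAMY maximum.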

Row | EC50 [1] | Max ThT signal (%) [2] | SMILES
1 | 0.04 nM | 5.100% | CC[C@H](C)[C@@H]1NC(=O)[C@H](CCCNC(=N)N)NC(=O)[C@@H](NC(=O)CN)CSSC[C@@H](C(=O)N[C@H](C(=O)N[C@H](C(=O)N[C@@H](CCC(N)=O)C(=O)N[C@@H](CCCNC(=N)N)C(=O)N[C@@H](CC(C)C)C(=O)N[C@@H](C)C(=O)N[C@@H](Cc2c[nH]cn2)C(=O)N[C@@H](CCC(N)=O)C(=O)N[C@H](C(=O)N[C@@H](Cc2ccc(O)cc2)C(=O)N[C@@H](CCC(N)=O)C(=O)N[C@@H](Cc2ccccc2)C(=O)N[C@H](C(=O)N[C@@H](CC(=O)O)C(=O)N[C@@H](CCCCN)C(=O)N[C@@H](Cc2ccccc2)C(=O)N[C@@H](CCCCN)C(=O)N[C@@H](CC(=O)O)C(=O)N[C@@H](CC(N)=O)C(=O)N[C@H](C(=O)N[C@@H](C)C(=O)N2CCC[C@H]2C(=O)N[C@@H](CCCNC(=N)N)C(=O)N[C@@H](CO)C(=O)N[C@@H](CCCCN)C(=O)N[C@H](C(=O)N[C@@H](CO)C(=O)N2CCC[C@H]2C(=O)N[C@@H](CCC(N)=O)C(=O)N[C@H](C(=O)N2C[C@H](O)C[C@H]2C(N)=O)[C@@H](C)O)[C@@H](C)CC)C(C)C)[C@@H](C)O)[C@@H](C)CC)C(C)C)[C@@H](C)O)NC(=O)[C@H]([C@@H](C)O)NC(=O)CNC1=O [compound 147] (H-GCRIGTCTVQRLAHQIYQFTDKFKDNVAPRSKISPQT[Hyp]-NH2; disulfide 2-7; N-terminus assumed)
2 | 0.186 nM | 2.000% | CC[C@H](C)[C@H](NC(=O)[C@H](CCC(N)=O)NC(=O)[C@H](Cc1c[nH]cn1)NC(=O)[C@H](C)NC(=O)[C@H](CC(C)C)NC(=O)[C@H](CCCNC(=N)N)NC(=O)[C@H](CCC(N)=O)NC(=O)[C@@H](NC(=O)[C@@H](NC(=O)[C@@H]1CSSC[C@H](NC(=O)CN)C(=O)N[C@@H](CCCNC(=N)N)C(=O)N[C@@H]([C@@H](C)O)C(=O)NCC(=O)N[C@@H]([C@@H](C)O)C(=O)N1)[C@@H](C)O)C(C)C)C(=O)N[C@@H](Cc1ccc(O)cc1)C(=O)N[C@@H](CCC(N)=O)C(=O)N[C@@H](Cc1ccccc1)C(=O)N[C@H](C(=O)N[C@@H](CC(=O)O)C(=O)N[C@@H](CCCCN)C(=O)N[C@@H](CC(=O)O)C(=O)N[C@@H](CCCCN)C(=O)N[C@@H](CC(=O)O)C(=O)N[C@@H](CC(N)=O)C(=O)N[C@H](C(=O)N[C@@H](C)C(=O)N1CCC[C@H]1C(=O)N[C@@H](CCCNC(=N)N)C(=O)N[C@@H](CO)C(=O)N[C@@H](CC(N)=O)C(=O)N[C@H](C(=O)N[C@@H](CO)C(=O)N1CCC[C@H]1C(=O)N[C@@H](CCC(N)=O)C(=O)NCC(=O)N1C[C@H](O)C[C@H]1C(N)=O)C(C)C)C(C)C)[C@@H](C)O [compound 224] (H-GCRTGTCTVQRLAHQIYQFTDKDKDNVAPRSNVSPQG[Hyp]-NH2; disulfide 2-7; N-terminus assumed)
3 | 0.014 nM | 18.400% | CC[C@H](C)[C@H](NC(=O)[C@H](CCC(N)=O)NC(=O)[C@H](Cc1c[nH]cn1)NC(=O)[C@H](C)NC(=O)[C@H](CC(C)C)NC(=O)[C@H](Cc1c[nH]c2ccccc12)NC(=O)[C@H](CCC(N)=O)NC(=O)[C@@H](NC(=O)[C@@H](NC(=O)[C@@H]1CSSC[C@H](NC(=O)CN)C(=O)N[C@@H](CCCNC(=N)N)C(=O)N[C@@H](Cc2ccccc2)C(=O)NCC(=O)N[C@@H]([C@@H](C)O)C(=O)N1)[C@@H](C)O)C(C)C)C(=O)N[C@@H](Cc1ccc(O)cc1)C(=O)N[C@@H](CCC(N)=O)C(=O)N[C@@H](Cc1ccccc1)C(=O)N[C@H](C(=O)N[C@@H](CC(=O)O)C(=O)N[C@@H](CCCCN)C(=O)N[C@@H](CC(=O)O)C(=O)N[C@@H](CCCCN)C(=O)N[C@@H](CC(=O)O)C(=O)N[C@@H](CC(N)=O)C(=O)N[C@H](C(=O)N[C@@H](C)C(=O)N1CCC[C@H]1C(=O)N[C@@H](CCCNC(=N)N)C(=O)N[C@H](C(=O)N[C@@H](CCCCN)C(=O)N[C@H](C(=O)NCC(=O)N1CCC[C@H]1C(=O)N[C@@H](CCC(N)=O)C(=O)NCC(=O)N1C[C@H](O)C[C@H]1C(N)=O)C(C)C)[C@@H](C)O)C(C)C)[C@@H](C)O [compound 322] (H-GCRFGTCTVQWLAHQIYQFTDKDKDNVAPRTKVGPQG[Hyp]-NH2; disulfide 2-7; N-terminus assumed)
